Assay results: PMC11149885 (PLOS ONE, 2024)
Several values for one entry are separate records, joined by “and”; a condition that tells them apart may be missing. Equal entries are not always repeated. Where two headings read alike, the source gives them in different places.

Assays:
[1] = system: VEGF-A–induced sprouting of HUVECs; assay: HUVEC spheroid sprouting assay; type: cell-based, human; conditions: for cumulative sprout length per spheroid (CSL), mean: 25 ng/mL VEGF-165, 24 hours
Description: The three TKI compounds were tested by Reaction Biology Europe (Freiburg, Germany) in the spheroid-based cellular angiogenesis assay to determine their effect on VEGF-A–induced sprouting of HUVECs. Primary HUVECs from pooled donors at passage 3 to 4 (PromoCell, Heidelberg, Germany) were grown in endothelial cell growth and basal medium (ECGM/ECBM, PromoCell). Test compounds were prepared as 100-fold concentrated stock solutions in DMSO and pre-diluted in basal medium. HUVECs were stimulated using 25 ng/mL VEGF-165 (Reaction Biology Europe, Freiburg, Germany) pre-diluted in basal medium.
Spheroids were prepared as described by pipetting 400 HUVECs in a hanging drop on plastic dishes to allow overnight spheroid aggregation. Fifty HUVEC spheroids were seeded in 0.9 mL of a collagen gel and pipetted into individual wells of a 24-well plate to allow polymerization. Test compounds and VEGF-165 were added after 30 minutes by pipetting 100 μL of a ten-fold concentrated solution onto the polymerized gel. Plates were incubated at 37°C for 24 hours, and cells were fixed by adding 4% paraformaldehyde (Roth, Karlsruhe, Germany). Sprouting intensity of HUVEC spheroids treated with the test samples was quantitated using an image analysis system to determine the cumulative sprout length (CSL) per spheroid. Images of single spheroids were captured using an inverted microscope and the digital imaging software NIS-Elements BR 3.0 (Nikon). Spheroid pictures were uploaded to Wimasis (www.wimasis.com) for image analysis. The CSL of each spheroid was determined using the imaging analysis tool WimSprout. The mean CSL of ten randomly selected spheroids was analyzed as an individual data point.

[2] = 634 ug, cited from earlier work
TIE2 = TIE2 (Homo sapiens, UniProt Q02763); assay: HotSpot kinase screen; type: biochemical; design: purchased Reaction Biology Corporation (contract assay); conditions: 10μM ATP
synthetic melanin = assay: in vitro
[3] = system: VEGF-induced angiogenesis on the CAM; assay: Gelatin sponge chick chorioallantoic membrane (CAM) assay

TIE2, sequence (Q02763 23-1124): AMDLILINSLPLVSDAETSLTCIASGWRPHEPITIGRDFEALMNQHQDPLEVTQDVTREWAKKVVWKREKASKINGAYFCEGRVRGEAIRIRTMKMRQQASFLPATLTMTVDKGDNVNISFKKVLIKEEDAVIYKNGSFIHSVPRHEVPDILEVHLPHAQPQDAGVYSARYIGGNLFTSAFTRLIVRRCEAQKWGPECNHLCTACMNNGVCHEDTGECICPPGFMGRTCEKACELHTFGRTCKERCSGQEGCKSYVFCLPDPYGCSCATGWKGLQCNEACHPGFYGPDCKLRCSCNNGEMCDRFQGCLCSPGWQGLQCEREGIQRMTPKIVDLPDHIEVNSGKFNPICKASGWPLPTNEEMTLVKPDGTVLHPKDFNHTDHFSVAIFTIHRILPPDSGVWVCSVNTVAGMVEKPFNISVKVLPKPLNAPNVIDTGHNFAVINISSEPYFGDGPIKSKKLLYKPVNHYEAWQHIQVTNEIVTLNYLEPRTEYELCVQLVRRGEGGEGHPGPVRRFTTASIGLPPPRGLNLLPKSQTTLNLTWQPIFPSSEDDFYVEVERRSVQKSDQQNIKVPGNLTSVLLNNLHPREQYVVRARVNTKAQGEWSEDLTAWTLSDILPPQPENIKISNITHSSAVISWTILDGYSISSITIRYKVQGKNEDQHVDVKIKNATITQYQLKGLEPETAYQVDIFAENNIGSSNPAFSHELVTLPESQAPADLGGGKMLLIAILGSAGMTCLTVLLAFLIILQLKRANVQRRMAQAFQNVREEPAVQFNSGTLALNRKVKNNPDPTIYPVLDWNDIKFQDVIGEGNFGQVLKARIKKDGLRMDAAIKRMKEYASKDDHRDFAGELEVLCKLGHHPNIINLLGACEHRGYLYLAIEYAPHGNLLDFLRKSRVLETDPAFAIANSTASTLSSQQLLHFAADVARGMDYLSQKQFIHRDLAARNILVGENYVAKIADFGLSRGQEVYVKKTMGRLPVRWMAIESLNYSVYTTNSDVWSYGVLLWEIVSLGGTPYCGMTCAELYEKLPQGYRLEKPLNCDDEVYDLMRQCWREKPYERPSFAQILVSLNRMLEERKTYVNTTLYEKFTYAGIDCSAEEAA

Cc1[nH]c(/C=C2\C(=O)Nc3ccc(F)cc32)c(C)c1C(=O)N[C@H]1CCN(C(=O)N(C)C)C1 [Vorolanib]
cumulative sprout length per spheroid (CSL), mean ([1]; 1.00E-05 M TKI): 144 | cumulative sprout length per spheroid (CSL), mean ([1]; 1.00E-06 M TKI): 242 | cumulative sprout length per spheroid (CSL), mean ([1]; 1.00E-07 M TKI): 455 | cumulative sprout length per spheroid (CSL), mean ([1]; 3.00E-06 M TKI): 269 | cumulative sprout length per spheroid (CSL), mean ([1]; 3.00E-07 M TKI): 241 | cumulative sprout length per spheroid (CSL), mean ([1]; 3.00E-08 M TKI): 992 | vessel sprouting (representative spheroid images) ([1]; highest test concentration of 1×10^–5M): zero vessel sprouting | Concentration, choroid ([2]; 2 days post-treatment): 124 µg/g | Concentration, choroid ([2]; 14 days post-treatment): 52 µg/g | Concentration, choroid ([2]; 29 days post-treatment): 74 µg/g | Concentration, choroid ([2]; 62 days post-treatment): 206 µg/g | Concentration, choroid ([2]; 120 days post-treatment): 109 µg/g | Concentration, choroid ([2]; 182 days post-treatment): 200 µg/g | Concentration, choroid ([2]; 240 days post-treatment): 293 µg/g | Concentration, retina ([2]; 2 days post-treatment): 208.6 µg/g | Concentration, retina ([2]; 14 days post-treatment): 223.3 µg/g | Concentration, retina ([2]; 29 days post-treatment): 143.1 µg/g | Concentration, retina ([2]; 62 days post-treatment): 136.3 µg/g | Concentration, retina ([2]; 120 days post-treatment): 434.5 µg/g | Concentration, retina ([2]; 182 days post-treatment): 243.2 µg/g | Concentration, retina ([2]; 240 days post-treatment): 122.5 µg/g | Avg % Inhibition TIE2 (TIE2; 1uM TKI): 4.09% | Avg % Inhibition TIE2 (TIE2; 1uM TKI, listed as vorolanib): 4% | Avg % Inhibition TIE2 (TIE2; 10uM TKI): 21.27% | Avg % Inhibition TIE2 (TIE2; 10uM TKI, listed as vorolanib): 21% | fraction unbound at 1 h (synthetic melanin): 0.857 | Angiogenesis - Vessel number, Mean ([3]; TKI at 200 x VEGFR2 IC50): 8.7 | Angiogenesis - Vessel number, individual egg ([3]; TKI at 200 x VEGFR2 IC50, one value per egg): 1.33 and 10.33 and 14 and 8.33 and 9.33 and 9 | reduction of the number of blood vessels perfusing the sponges vs negative control ([3]; TKI at 200× VEGFR2 IC50 dose): 37.1% | reduction of the number of blood vessels perfusing the sponges vs negative control ([3]; TKI at VEGFR2 IC50 dose): 39.9% | Angiogenesis - Vessel thickness score, Mean ([3]; TKI at VEGFR2 IC50 dose, score 0-3): 1.2 | Angiogenesis - Vessel thickness score, individual egg ([3]; TKI at VEGFR2 IC50 dose, score 0-3, one value per egg): 0 and 1.67 and 1.33 and 1 and 0.67 and 2.33
